Data as given in PubChem BioAssay AID1963964 (Molecular Pharmacology Branch, DTP, NCI, 2024).
One block for each compound: values may come before it.

Tested on: 997726-040-R-J2-PDC tumor spheroids, viability
Assay: Anticancer human tumor 997726-040-R-J2-PDC patient-derived squamous cell lung carcinoma cell line growth inhibition [PI3K]
Conditions: spheroids with HUVEC and MSC; for viability, T/C: stronger effect = lower value
Summary of the method: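 Targeted small molecules plus PI3K inhibitors, half-log dose series from Cmax (default top 10 microM), were applied to heterotypic spheroids of cancer cells with HUVEC and MSCs. Viability indicated growth inhibition.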

[1] = curve of first compound, second compound 0.00316 µM
[2] = curve of first compound, second compound 0.01 µM
[3] = curve of first compound, second compound 0.0316 µM
[4] = curve of first compound, second compound 0.1 µM
[5] = curve of first compound, second compound 0.316 µM
[6] = curve of first compound, second compound 1 µM
[7] = second compound 0.00316 µM, first compound 0.0316 µM
[8] = second compound 0.00316 µM, first compound 0.1 µM
[9] = second compound 0.00316 µM, first compound 0.316 µM
[10] = second compound 0.00316 µM, first compound 1 µM
[11] = second compound 0.00316 µM, first compound 3.16 µM
[12] = second compound 0.00316 µM, first compound 10 µM
[13] = second compound 0.01 µM, first compound 0.0316 µM
[14] = second compound 0.01 µM, first compound 0.1 µM
[15] = second compound 0.01 µM, first compound 0.316 µM
[16] = second compound 0.01 µM, first compound 1 µM
[17] = second compound 0.01 µM, first compound 3.16 µM
[18] = second compound 0.01 µM, first compound 10 µM
[19] = second compound 0.0316 µM, first compound 0.0316 µM
[20] = second compound 0.0316 µM, first compound 0.1 µM
[21] = second compound 0.0316 µM, first compound 0.316 µM
[22] = second compound 0.0316 µM, first compound 1 µM
[23] = second compound 0.0316 µM, first compound 3.16 µM
[24] = second compound 0.0316 µM, first compound 10 µM
[25] = second compound 0.1 µM, first compound 0.0316 µM
[26] = second compound 0.1 µM, first compound 0.1 µM
[27] = second compound 0.1 µM, first compound 0.316 µM
[28] = second compound 0.1 µM, first compound 1 µM
[29] = second compound 0.1 µM, first compound 3.16 µM
[30] = second compound 0.1 µM, first compound 10 µM
[31] = second compound 0.316 µM, first compound 0.0316 µM
[32] = second compound 0.316 µM, first compound 0.1 µM
[33] = second compound 0.316 µM, first compound 0.316 µM
[34] = second compound 0.316 µM, first compound 1 µM
[35] = second compound 0.316 µM, first compound 3.16 µM
[36] = second compound 0.316 µM, first compound 10 µM
[37] = second compound 1 µM, first compound 0.0316 µM
[38] = second compound 1 µM, first compound 0.1 µM
[39] = second compound 1 µM, first compound 0.316 µM
[40] = second compound 1 µM, first compound 1 µM
[41] = second compound 1 µM, first compound 3.16 µM
[42] = second compound 1 µM, first compound 10 µM
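Note: spheroids exposed to compounds for seven days before readout.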

Compound: CC(Nc1ccc2c(c1)OCCn1cc(N3C(=O)OCC3C(F)F)nc1-2)C(N)=O (configuration not stated)
viability, T/C (compound 0.00316 µM): 91.6% [middle of 8 runs] | viability, T/C (compound 0.01 µM): 81.8% [middle of 8 runs] | viability, T/C (compound 0.0316 µM): 61% [middle of 8 runs] | viability, T/C (compound 0.1 µM): 44.3% [middle of 8 runs] | viability, T/C (compound 0.316 µM): 32.9% [middle of 8 runs] | viability, T/C (compound 1 µM): 28.2% [middle of 8 runs] | IC50 (compound alone, run of 06/12/2023): 71.5 nM [middle of 8 runs]

Compound: CNC(=O)c1ccc(N2C(=S)N(c3ccc(C#N)c(C(F)(F)F)c3)C(=O)C2(C)C)cc1F
viability, T/C (compound 0.0316 µM): 109% [middle of 4 runs] | viability, T/C (compound 0.1 µM): 95.3% [middle of 4 runs] | viability, T/C (compound 0.316 µM): 97% [middle of 4 runs] | viability, T/C (compound 1 µM): 93.3% [middle of 4 runs] | viability, T/C (compound 3.16 µM): 108% [middle of 4 runs] | viability, T/C (compound 10 µM): 95.8% [middle of 4 runs] | IC50 (curve of compound): > 10000 nM

Compound: Cn1nccc1Nc1nccc(-c2ccn(C(CO)c3ccc(Cl)c(F)c3)c(=O)c2)n1 (configuration not stated) + COc1c(OCCCN2CCOCC2)ccc2c3n(c(=NC(=O)c4cnc(N)nc4)nc12)CCN3
IC50 [1]: 299 nM | IC50 [2]: 40.8 nM | IC50 [3]: < 31.6 nM | IC50 [4]: < 31.6 nM | IC50 [5]: < 31.6 nM | IC50 [6]: < 31.6 nM | viability, T/C [7]: 70.4% | viability, T/C [8]: 66.3% | viability, T/C [9]: 49.1% | viability, T/C [10]: 51.9% | viability, T/C [11]: 44.8% | viability, T/C [12]: 49.8% | viability, T/C [13]: 52% | viability, T/C [14]: 47.7% | viability, T/C [15]: 40.3% | viability, T/C [16]: 43.9% | viability, T/C [17]: 42.1% | viability, T/C [18]: 34.2% | viability, T/C [19]: 37.3% | viability, T/C [20]: 35.5% | viability, T/C [21]: 26.8% | viability, T/C [22]: 27.5% | viability, T/C [23]: 27.3% | viability, T/C [24]: 25.2% | viability, T/C [25]: 20.4% | viability, T/C [26]: 20.2% | viability, T/C [27]: 18.3% | viability, T/C [28]: 19% | viability, T/C [29]: 20% | viability, T/C [30]: 11.8% | viability, T/C [31]: 5.76% | viability, T/C [32]: 4.79% | viability, T/C [33]: 5.29% | viability, T/C [34]: 3.62% | viability, T/C [35]: 3.85% | viability, T/C [36]: 0.65% | viability, T/C [37]: 0.97% | viability, T/C [38]: 1.38% | viability, T/C [39]: 1.3% | viability, T/C [40]: 0.75% | viability, T/C [41]: 0.59% | viability, T/C [42]: 0.31%

Compound: CNC(=O)c1ccc(N2C(=S)N(c3ccc(C#N)c(C(F)(F)F)c3)C(=O)C2(C)C)cc1F + COc1c(OCCCN2CCOCC2)ccc2c3n(c(=NC(=O)c4cnc(N)nc4)nc12)CCN3
IC50 [1]: > 10000 nM | IC50 [2]: > 10000 nM | IC50 [3]: < 31.6 nM | IC50 [4]: < 31.6 nM | IC50 [5]: < 31.6 nM | IC50 [6]: < 31.6 nM | viability, T/C [7]: 73.4% | viability, T/C [8]: 81.8% | viability, T/C [9]: 70.3% | viability, T/C [10]: 76.1% | viability, T/C [11]: 77.7% | viability, T/C [12]: 68.2% | viability, T/C [13]: 66.2% | viability, T/C [14]: 61.2% | viability, T/C [15]: 54.8% | viability, T/C [16]: 54.8% | viability, T/C [17]: 56.4% | viability, T/C [18]: 50% | viability, T/C [19]: 38.2% | viability, T/C [20]: 40.2% | viability, T/C [21]: 35.9% | viability, T/C [22]: 36.6% | viability, T/C [23]: 31.1% | viability, T/C [24]: 30.9% | viability, T/C [25]: 24.3% | viability, T/C [26]: 27.4% | viability, T/C [27]: 21.6% | viability, T/C [28]: 24.9% | viability, T/C [29]: 20.5% | viability, T/C [30]: 22.4% | viability, T/C [31]: 5.92% | viability, T/C [32]: 6.55% | viability, T/C [33]: 5.84% | viability, T/C [34]: 6.05% | viability, T/C [35]: 6.82% | viability, T/C [36]: 4.31% | viability, T/C [37]: 1.55% | viability, T/C [38]: 1.44% | viability, T/C [39]: 1.25% | viability, T/C [40]: 1.13% | viability, T/C [41]: 1.39% | viability, T/C [42]: 1.47%

The next lines start with results.

IC50 [1]: > 10000 nM | IC50 [2]: > 10000 nM | IC50 [3]: > 10000 nM | IC50 [4]: < 31.6 nM | IC50 [5]: < 31.6 nM | IC50 [6]: < 31.6 nM
Compound: CC(Cn1ccc(-c2ccc(C#N)c(Cl)c2)n1)NC(=O)c1cc(C(C)O)[nH]n1 (configuration not stated) + CC(Nc1ccc2c(c1)OCCn1cc(N3C(=O)OCC3C(F)F)nc1-2)C(N)=O
viability, T/C [7]: 85.8% | viability, T/C [8]: 88.3% | viability, T/C [9]: 89.4% | viability, T/C [10]: 91.4% | viability, T/C [11]: 97.3% | viability, T/C [12]: 85.4% | viability, T/C [13]: 78.3% | viability, T/C [14]: 81% | viability, T/C [15]: 80% | viability, T/C [16]: 84.5% | viability, T/C [17]: 84.1% | viability, T/C [18]: 89.4% | viability, T/C [19]: 61.1% | viability, T/C [20]: 70.2% | viability, T/C [21]: 67.3% | viability, T/C [22]: 62.6% | viability, T/C [23]: 63.8% | viability, T/C [24]: 64.7% | viability, T/C [25]: 48.5% | viability, T/C [26]: 45.5% | viability, T/C [27]: 54.1% | viability, T/C [28]: 51.4% | viability, T/C [29]: 47.3% | viability, T/C [30]: 48.2% | viability, T/C [31]: 39% | viability, T/C [32]: 32.9% | viability, T/C [33]: 32.8% | viability, T/C [34]: 33.7% | viability, T/C [35]: 35.8% | viability, T/C [36]: 31.5% | viability, T/C [37]: 31.1% | viability, T/C [38]: 26.7% | viability, T/C [39]: 26.6% | viability, T/C [40]: 30.5% | viability, T/C [41]: 28.6% | viability, T/C [42]: 24.5%

IC50 [1]: < 31.6 nM | IC50 [2]: < 31.6 nM | IC50 [3]: < 31.6 nM | IC50 [4]: < 31.6 nM | IC50 [5]: < 31.6 nM | IC50 [6]: < 31.6 nM
Compound: CC1(C)CCC(Nc2ncc(C(F)(F)F)c(-c3c[nH]c4c(P(C)(C)=O)c(C#N)ccc34)n2)CN1 (configuration not stated) + CC(Nc1ccc2c(c1)OCCn1cc(N3C(=O)OCC3C(F)F)nc1-2)C(N)=O
viability, T/C [7]: 28.7% | viability, T/C [8]: 30% | viability, T/C [9]: 33.1% | viability, T/C [10]: 33.6% | viability, T/C [11]: 32.4% | viability, T/C [12]: 5.79% | viability, T/C [13]: 32.1% | viability, T/C [14]: 30.8% | viability, T/C [15]: 28.8% | viability, T/C [16]: 31% | viability, T/C [17]: 28.3% | viability, T/C [18]: 4.9% | viability, T/C [19]: 25.6% | viability, T/C [20]: 22.9% | viability, T/C [21]: 23.5% | viability, T/C [22]: 26.1% | viability, T/C [23]: 25.2% | viability, T/C [24]: 4.37% | viability, T/C [25]: 14.3% | viability, T/C [26]: 18.4% | viability, T/C [27]: 17.3% | viability, T/C [28]: 21.5% | viability, T/C [29]: 19.6% | viability, T/C [30]: 3.37% | viability, T/C [31]: 14.6% | viability, T/C [32]: 12.9% | viability, T/C [33]: 14.1% | viability, T/C [34]: 13.4% | viability, T/C [35]: 13% | viability, T/C [36]: 1.45% | viability, T/C [37]: 11.4% | viability, T/C [38]: 9.53% | viability, T/C [39]: 10.6% | viability, T/C [40]: 11% | viability, T/C [41]: 12.6% | viability, T/C [42]: 1.25%
